Columns and labels:
[1] = system: genome-length HCV RNA replication in OR6 cells; test: Genome-length HCV replication assay in OR6 cells (Renilla luciferase reporter); format: cell-based, Hepatitis C virus (HCV); conditions: luciferase activity
Source text: Briefly, the cells described in Patent Literature 1 used for the screening were as follows: That is, the cells were those obtained by introducing, into Oc cells (FERM P-20517) originated from a human hepatocarcinoma cell line HuH-7, a plasmid containing full length of HCV genome, luciferase gene as a reporter gene and neomycin-resistant gene (neomycin phosphotransferase gene) as a selection marker gene. More specifically, the cells (OR6 cells) were the Oc cells (FERM P-20517) originated from a human hepatocarcinoma cell line HuH-7, into which a plasmid having an RNA containing, from the 5′-end, internal ribosome entry site (IRES) sequence of HCV, luciferase gene, neomycin phosphotransferase gene, IRES sequence originated from encephalomyocarditis virus (EMCV), HCV open reading frame sequence and HCV 3′ untranslated sequence. After culturing the OR6 cells in a culture medium containing a test compound whose anti-viral activity against HCV (that is, therapeutic effect against hepatitis C) is to be examined, the luciferase activity of the cells is measured. […] Therefore, the lower the luciferase activity measured, the higher the anti-HCV activity. In Patent Literature 1, it was experimentally confirmed that correlation between the luciferase activity measured and the amount of HCV RNA is very high, so that it has been confirmed that this system has a high reliability. […]

[2] = system: Renilla luciferase driven by EMCV IRES in OR6c cells; test: Control transfection: EMCV IRES-driven Renilla luciferase plasmid pEMCV-RL in cured OR6c cells; format: cell-based, human; conditions: cured OR6c cells transfected with pEMCV-RL, HU added 24 h after transfection, 72 h culture
Experimental: In accordance with Patent Literature 1, a plasmid encoding Renilla luciferase driven by the internal ribosome entry site (IRES) of encephalomyocarditis virus (EMCV) was transfected into OR6c cells which were OR6 cells cured by IFN, with FuGENE6 reagent (produced by Roche Diagnostics), and 24 hours after transfection, the cells were treated with various concentrations of HU and cultured for 72 hours.

[3] = system: OR6 cells; test: Cell viability, viable cell count after trypan blue staining; format: cell-based, human; conditions: 72 h, HU at each concentration up to 100 μmol/L
Experimental: In order to examine the cytotoxic effects of HU on OR6 cells, the cells were seeded onto dishes of diameter 95 mm at a density of 400,000 cells per dish, and cultured for 72 hours after adding HU to a concentration of 0, 50, 100, and 150 μmol/L, respectively. The number of viable cells was then counted by a hematocytometer after staining with trypan blue dye.

[4] = system: HCV RNA (virus level); test: Clinical test in patients with intractable hepatitis C, serum HCV RNA by real-time PCR (TaqMan); format: in vivo, human; conditions: oral 1500 mg/day for 4 weeks
Experimental: Serum HCV RNA level (log IU/ml) was measured every week from before the administration to the end of the therapy by the real-time detection PCR method using TaqMan (trade name) probe.

[5] = serum HCV RNA (log IU/ml), 12 patients

Substance | IC50 ([1]; 72-h treatment, HU up to 150 μmol/L, read-out: 50% replication inhibition concentration) [µM] | inhibition of Renilla fluorescence (control plasmid) [2] | number of viable cells compared to untreated cells [3] | patients with decrease in the virus level (HCV RNA) ([4]; 9 out of 12 patients, intractable hepatitis C, serogroup 1, high virus level) [%] | decrease in the virus level, average [4, 5] [Log] | decrease in the virus level, maximum [4, 5] [Log] | 50% inhibition concentration ([1]; 72 h treatment) [IU/mL]
hydroxyurea [HU] | 60 | did not inhibit | no significant difference | 75 | 0.22 | 0.37 | 
interferon α |  |  |  |  |  |  | 1.2
